Results taken from ChEMBL document CHEMBL5500408, “A New Gramicidin S Analogue with Potent Antibacterial Activity and Negligible Hemolytic Toxicity” (J Med Chem, 2024).
Converted amounts (≈) assume the structure as drawn. Residues, ends and D or L forms follow the SMILES beside them.

Legend:
Staphylococcus aureus [1] = assay: Antibacterial activity against methicillin-sensitive Staphylococcus aureus ATCC 49775 incubated for 16 to 20 hrs by CLSI based broth microdilution method; assay type: functional; conditions: time 16-20 hrs
[2] = Hemolytic activity in sheep erythrocytes incubated for 30 mins by absorbance based assay; assay type: toxicity, cell-based, Ovis aries, Erythrocyte
Staphylococcus aureus [3] = assay: Antibacterial activity against methicillin-resistant Staphylococcus aureus ATCC USA300 incubated for 16 to 20 hrs by CLSI based broth microdilution method; assay type: functional; conditions: time 16-20 hrs
[4] = Retention time of the compound by RP-HPLC analysis; assay type: physicochemical
Staphylococcus aureus [5] = assay: Antibacterial activity against methicillin-sensitive Staphylococcus aureus ATCC 29213 incubated for 16 to 20 hrs by CLSI based broth microdilution method; assay type: functional; conditions: time 16-20 hrs
Staphylococcus aureus [6] = assay: Antibacterial activity against methicillin-resistant Staphylococcus aureus […] incubated for 16 to 20 hrs by CLSI based broth microdilution method; assay type: functional; conditions: time 16-20 hrs
[7] = Nephrotoxicity against HEK293 cells assessed as cell viability at 12.5 uM incubated for 24 hrs by MTT assay relative to control; assay type: toxicity, cell-based; conditions: human, read-out: Activity
HEK293 = assay: Nephrotoxicity against HEK293 cells at MIC incubated for 24 hrs by MTT assay; assay type: toxicity, cell-based; conditions: human, hek293, 24 h

Compound	MIC (Staphylococcus aureus [1])	HC50 at 0.5 h [2]	MIC (Staphylococcus aureus [3])	Retention_time [4]	MIC (Staphylococcus aureus [5])	MIC (Staphylococcus aureus [6])	viability at 24 h, 12.5 µM [7]	Activity (HEK293)
CC(C)C[C@@H]1NC(=O)[C@H](CCCN)NC(=O)[C@H](C(C)C)NC(=O)[C@@H]2CCCN2C(=O)[C@@H](Cc2ccccc2)NC(=O)[C@H](CC(C)C)NC(=O)[C@H](CCCNC(=N)N)NC(=O)[C@H](C(C)C)NC(=O)[C@@H]2CCCN2C(=O)[C@@H](CCCNC(=N)N)NC1=O (HELM PEPTIDE1{L.[dF].P.V.[Orn].L.[dR].P.V.R}$PEPTIDE1,PEPTIDE1,1:R1-10:R2$$$V2.0)	8 µg/mL (≈ 6.71 µM)	87.2 µM	8 µg/mL (≈ 6.71 µM)	16.47 min	8 µg/mL (≈ 6.71 µM)	8 µg/mL (≈ 6.71 µM)	–	–
CC(C)C[C@@H]1NC(=O)[C@H](CCCN)NC(=O)[C@H](C(C)C)NC(=O)[C@@H]2CCCN2C(=O)[C@@H](Cc2ccccc2)NC(=O)[C@H](CC(C)C)NC(=O)[C@H](CCCN)NC(=O)[C@H](C(C)C)NC(=O)[C@@H]2CCCN2C(=O)[C@@H](Cc2ccccc2)NC1=O [GRAMICIDIN S] (HELM PEPTIDE1{L.[dF].P.V.[Orn].L.[dF].P.V.[Orn]}$PEPTIDE1,PEPTIDE1,1:R1-10:R2$$$V2.0)	4 µg/mL (≈ 3.5 µM)	60.1 µM	4 µg/mL (≈ 3.5 µM)	18.57 min	4 µg/mL (≈ 3.5 µM)	4 µg/mL (≈ 3.5 µM)	25%	–
CC(C)C[C@@H]1NC(=O)[C@H](CCCN)NC(=O)[C@H](C(C)C)NC(=O)[C@H](Cc2c[nH]cn2)NC(=O)[C@@H](Cc2ccccc2)NC(=O)[C@H](CC(C)C)NC(=O)[C@H](CCCN)NC(=O)[C@H](C(C)C)NC(=O)[C@H](Cc2c[nH]cn2)NC(=O)[C@@H](Cc2ccccc2)NC1=O	64 µg/mL (≈ 52.4 µM)	> 100 µM	128 µg/mL (≈ 105 µM)	14.74 min	64 µg/mL (≈ 52.4 µM)	64 µg/mL (≈ 52.4 µM)	–	–
CC(C)C[C@@H]1NC(=O)[C@H](CCCN)NC(=O)[C@H](C(C)C)NC(=O)[C@@H]2CCCN2C(=O)[C@@H](Cc2ccccc2)NC(=O)[C@H](CC(C)C)NC(=O)[C@H](CCCN)NC(=O)[C@H](C(C)C)NC(=O)[C@@H]2CCCN2C(=O)[C@@H](CCCNC(=N)N)NC1=O (HELM PEPTIDE1{L.[dF].P.V.[Orn].L.[dR].P.V.[Orn]}$PEPTIDE1,PEPTIDE1,1:R1-10:R2$$$V2.0)	8 µg/mL (≈ 6.95 µM)	> 100 µM	8 µg/mL (≈ 6.95 µM)	16.22 min	8 µg/mL (≈ 6.95 µM)	8 µg/mL (≈ 6.95 µM)	~90%	Non-Toxic
CC(C)C[C@@H]1NC(=O)[C@H](CCCN)NC(=O)[C@H](C(C)C)NC(=O)[C@@H]2CCCN2C(=O)[C@@H](Cc2c[nH]cn2)NC(=O)[C@H](CC(C)C)NC(=O)[C@H](CCCN)NC(=O)[C@H](C(C)C)NC(=O)[C@@H]2CCCN2C(=O)[C@@H](Cc2c[nH]cn2)NC1=O	256 µg/mL (≈ 228 µM)	> 100 µM	> 256 µg/mL	14.01 min	256 µg/mL (≈ 228 µM)	256 µg/mL (≈ 228 µM)	–	–
CC(C)C[C@@H]1NC(=O)[C@H](CCCN)NC(=O)[C@H](C(C)C)NC(=O)[C@@H]2CCCN2C(=O)[C@@H](Cc2ccccc2)NC(=O)[C@H](CC(C)C)NC(=O)[C@H](CCCNC(=N)N)NC(=O)[C@H](C(C)C)NC(=O)[C@@H]2CCCN2C(=O)[C@@H](Cc2ccccc2)NC1=O	4 µg/mL (≈ 3.38 µM)	46.2 µM	8 µg/mL (≈ 6.76 µM)	18.74 min	8 µg/mL (≈ 6.76 µM)	16 µg/mL (≈ 13.5 µM)	–	–
CC(C)C[C@@H]1NC(=O)[C@H](CCCNC(=N)N)NC(=O)[C@H](C(C)C)NC(=O)[C@@H]2CCCN2C(=O)[C@@H](Cc2c[nH]cn2)NC(=O)[C@H](CC(C)C)NC(=O)[C@H](CCCN)NC(=O)[C@H](C(C)C)NC(=O)[C@@H]2CCCN2C(=O)[C@@H](Cc2ccccc2)NC1=O	16 µg/mL (≈ 13.6 µM)	> 100 µM	16 µg/mL (≈ 13.6 µM)	16.09 min	16 µg/mL (≈ 13.6 µM)	16 µg/mL (≈ 13.6 µM)	–	–
CC(C)C[C@@H]1NC(=O)[C@H](CCCN)NC(=O)[C@H](C(C)C)NC(=O)[C@@H]2CCCN2C(=O)[C@@H](CCCNC(=N)N)NC(=O)[C@H](CC(C)C)NC(=O)[C@H](CCCN)NC(=O)[C@H](C(C)C)NC(=O)[C@@H]2CCCN2C(=O)[C@@H](CCCNC(=N)N)NC1=O	32 µg/mL (≈ 27.6 µM)	> 100 µM	32 µg/mL (≈ 27.6 µM)	14.56 min	16 µg/mL (≈ 13.8 µM)	16 µg/mL (≈ 13.8 µM)	–	–
CC(C)C[C@@H]1NC(=O)[C@H](CCCNC(=N)N)NC(=O)[C@H](C(C)C)NC(=O)[C@@H]2CCCN2C(=O)[C@@H](Cc2ccccc2)NC(=O)[C@H](CC(C)C)NC(=O)[C@H](CCCNC(=N)N)NC(=O)[C@H](C(C)C)NC(=O)[C@@H]2CCCN2C(=O)[C@@H](Cc2ccccc2)NC1=O	8 µg/mL (≈ 6.53 µM)	25.4 µM	8 µg/mL (≈ 6.53 µM)	18.62 min	8 µg/mL (≈ 6.53 µM)	8 µg/mL (≈ 6.53 µM)	–	–
CC(C)C[C@@H]1NC(=O)[C@H](CCCNC(=N)N)NC(=O)[C@H](C(C)C)NC(=O)[C@@H]2CCCN2C(=O)[C@@H](Cc2ccccc2)NC(=O)[C@H](CC(C)C)NC(=O)[C@H](CCCN)NC(=O)[C@H](C(C)C)NC(=O)[C@@H]2CCCN2C(=O)[C@@H](CCCNC(=N)N)NC1=O	8 µg/mL (≈ 6.71 µM)	> 100 µM	8 µg/mL (≈ 6.71 µM)	16.47 min	8 µg/mL (≈ 6.71 µM)	8 µg/mL (≈ 6.71 µM)	–	–
